Positions of bridges follow the written chain, without caps; N, C: chain ends. Residues, ends and D or L forms follow the SMILES beside them.
Legend:
[1] = tested on: P. aeruginosa 27853; assay: MIC, modified microtiter dilution; assay type: cell-based, Pseudomonas aeruginosa; conditions: MHB, 2–7 × 10^5 CFU/ml, 37°C, 24 h, no turbidity, at least three independent repeats
Description: (§1) The experiment was repeated at least three times independently.

[2] = tested on: S. typhimurium 14028; assay: MIC, modified microtiter dilution; assay type: cell-based, Salmonella typhimurium; conditions: MHB, 2–7 × 10^5 CFU/ml, 37°C, 24 h, no turbidity, at least three independent repeats
Description: as §1

[3] = tested on: S. typhimurium 7731; assay: MIC, modified microtiter dilution; assay type: cell-based, Salmonella typhimurium; conditions: MHB, 2–7 × 10^5 CFU/ml, 37°C, 24 h, no turbidity, at least three independent repeats
Description: as §1

[4] = tested on: E. coli K88; conditions: MHB, 2–7 × 10^5 CFU/ml, 37°C, 24 h, no turbidity, at least three independent repeats
In short: (§2)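 Peptides serially diluted in 0.01% acetic acid/0.2% BSA and mixed 1:1 with mid-log bacteria in MHB at 2–7 × 10^5 CFU/ml. Plates held at 37°C for 24 h. Broth with cells and broth alone served as controls; at least three independent repeats.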

[5] = tested on: E. coli K99; conditions: MHB, 2–7 × 10^5 CFU/ml, 37°C, 24 h, no turbidity, at least three independent repeats
In short: as §2

[6] = tested on: S. aureus 29213; assay: Mouse model of subcutaneous infection; assay type: in vivo, ICR mice; conditions: 80× MIC
Description: To assess the antimicrobial activity of the peptide in vivo, a mouse model of subcutaneous infection was used ([Huang et al., 2011a]; [Omolo et al., 2017]). Female Institute for Cancer Research (ICR) mice (SPF, 20–25 g) were purchased from WeiTonglihua Co., Ltd. (Beijing, China), with eight animals per group. The mice were shaved on their backs and disinfected. S. aureus 29213 (100 μL) at a concentration of 1 × 10^8 CFU/mL was injected into the superficial skin of the mice. The mice were divided into four groups (n = 4), as follows: S. aureus + saline, S. aureus + S2 (80× MIC, 100 μL), S. aureus + vancomycin (Van) (80× MIC, 100 μL), and saline. S2, vancomycin, and saline were injected at the same site 1 h after infection. The mice were monitored over 24 h in an environmentally controlled room at 25 ± 1°C and 55 ± 5% relative humidity with a 12 h light/dark cycle.
To image the infected skin tissues, the mice were euthanized 24 h after the injection of S. aureus. Samples were fixed in 4% buffered paraformaldehyde and subjected to hematoxylin/eosin (HE) staining. The antimicrobial activity in vivo was determined by colony counting of infected skin samples. Skin homogenates were serially diluted in saline and incubated at 37°C for 24 h.

[7] = tested on: E. coli 25922; assay: MIC, modified microtiter dilution; assay type: cell-based, Escherichia coli; conditions: MHB, 2–7 × 10^5 CFU/ml, 37°C, 24 h, lowest concentration with no turbidity, at least three independent repeats
Description: as §1

[8] = tested on: E. coli UB1005; assay: MIC, modified microtiter dilution; assay type: cell-based, Escherichia coli; conditions: MHB, 2–7 × 10^5 CFU/ml, 37°C, 24 h, no turbidity, at least three independent repeats
Description: as §1

[9] = tested on: lipoteichoic acid (LTA) from S. aureus; assay: LTA binding, BODIPY-TR-cadaverine displacement; set-up: species or system Staphylococcus aureus; conditions: comparison among peptides, BC displacement
Description: Peptides binding to LTA were assayed using the BC (Sigma, United States) displacement method ([Zorko and Jerala, 2008]). The final concentration of 50 μg/mL LTA from S. aureus was incubated with 5 μg/mL BC in Tris-HCl buffer (50 mM, pH 7.4) for 4 h in a shaking incubator at 37°C. The peptides were then serially diluted in Tris–HCl buffer, and an equal volume solution was added to the 96-well plates. The fluorescence was measured (excitation λ = 580 nm, emission λ = 620 nm) on a spectrofluorophotometer (Infinite 200 Pro, Tecan, China). The experiment was conducted three times independently.

[10] = tested on: L. rhamnosus 1.0911; assay: MIC, modified microtiter dilution; assay type: cell-based, Lactobacillus rhamnosus; conditions: 2–7 × 10^5 CFU/ml, 37°C, 24 h, no turbidity, at least three independent repeats
Description: as §1

[11] = tested on: L. rhamnosus 1.0385; assay: MIC, modified microtiter dilution; assay type: cell-based, Lactobacillus rhamnosus; conditions: 2–7 × 10^5 CFU/ml, 37°C, 24 h, no turbidity, at least three independent repeats
Description: as §1

[12] = tested on: L. rhamnosus 7469; assay: MIC, modified microtiter dilution; assay type: cell-based, Lactobacillus rhamnosus; conditions: 2–7 × 10^5 CFU/ml, 37°C, 24 h, no turbidity, at least three independent repeats
Description: as §1

[13] = tested on: L. rhamnosus 1.0936; assay: MIC, modified microtiter dilution; assay type: cell-based, Lactobacillus rhamnosus; conditions: 2–7 × 10^5 CFU/ml, 37°C, 24 h, no turbidity, at least three independent repeats
Description: as §1

[14] = tested on: L. plantarum 8014; assay: MIC, modified microtiter dilution; assay type: cell-based, Lactobacillus plantarum; conditions: 2–7 × 10^5 CFU/ml, 37°C, 24 h, no turbidity, at least three independent repeats
Description: as §1

[15] = Systemic toxicity after intraperitoneal injection; assay type: in vivo, mice; conditions: 100 μL
Description: The mice were inoculated by intraperitoneal injection with 100 μL of S2 (80 MIC), and saline was used as the control. Signs of animal distress and changes in body weight were closely monitored. After five days, all the mice were euthanized, and the blood biochemistry parameters were determined ([Mishra et al., 2019]).

[16] = mean, intraperitoneal 80 MIC, after five days

For `CC(C)C[C@H](NC(=O)[C@H](CC(C)C)NC(=O)[C@H](Cc1c[nH]c2ccccc12)NC(=O)[C@H](Cc1c[nH]c2ccccc12)NC(=O)[C@H](Cc1c[nH]c2ccccc12)NC(=O)[C@H](CCCNC(=N)N)NC(=O)[C@@H]1CSSC[C@H](N)C(=O)N[C@@H](C)C(=O)N[C@@H](CO)C(=O)N[C@@H](Cc2ccc(O)cc2)C(=O)N[C@@H](Cc2ccccc2)C(=O)N1)C(N)=O` [Peptide S2] (H-CASYFCRWWWLL-NH2; disulfide 1-6; N-terminus assumed), the “MIC P. aeruginosa 27853” value [1] was over 64 µM, the “MIC S. typhimurium 14028” value [2] was over 64 µM and the “MIC S. typhimurium 7731” value [3] was over 64 µM. The “MIC E. coli K88” value [4] was over 64 µM, the “MIC E. coli K99” value [5] was over 64 µM and the “decrease in bacterial colonies at infection site versus control group” value ([6]; 100 μL injected at the infected site 1 h after infection, skin homogenate colony count after 24 h, P < 0.01) was 10 fold. The “ulceration (lesion) size, length × width” value ([6]; 100 μL, 1 h after infection) was “significantly reduced ulceration sizes”, the “MIC E. coli 25922” value [7] was over 64 µM and the “MIC E. coli UB1005” value [8] was over 64 µM. For the same compound, the “relative binding capacity to LTA” value [9] was “stronger binding capacity to LTA than S1 and S3”, the “MIC L. rhamnosus 1.0911” value [10] was over 64 µM and the “MIC L. rhamnosus 1.0385” value [11] was over 64 µM. For the same compound, the “MIC L. rhamnosus 7469” value [12] was over 64 µM, the “MIC L. rhamnosus 1.0936” value [13] was over 64 µM and the “MIC L. plantarum 8014” value [14] was over 64 µM. The “blood parameters versus saline treatment group” value ([15]; intraperitoneal, 80 MIC, after five days) was “unaltered”, the “clinical signs of toxicity” value ([15]; intraperitoneal, 80 MIC, monitored five days) was “no clinical signs indicative of toxicity” and the “blood Cl-” value [15, 16] was 111.25 mmol/L. For the same compound, the blood Creatinine [15, 16] was 12.4 µM, the “blood Glucose” value [15, 16] was 10.17 mmol/L and the “blood I.Phos.” value [15, 16] was 2.335 mmol/L. The “blood K+” value [15, 16] was 5.84 mmol/L, the “blood Na+” value [15, 16] was 149 mmol/L and the “blood Urea” value [15, 16] was 9.43 mmol/L.

— PMC7516806, “Hybrid Antimicrobial Peptide Targeting Staphylococcus aureus and Displaying Anti-infective Activity in a Murine Model” (Frontiers in Microbiology, 2020)
